The text below walks through data of PubChem BioAssay (NCI).

The structures appear in SMILES notation.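 Five compound concentrations were applied to cells in 96-well plates for 48 hours; endpoints were derived by simple linear interpolation of the resulting dose-response curve. GI50 is the concentration that inhibits growth by half. At the TGI there is no net growth.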

Test systems include COLO 205 colon; LOX IMVI melanoma; 786-0 renal; ACHN renal; MDA-MB-231 breast; NCI-H522 lung; BT-549 breast; SR leukemia; HOP-92 NSCLC; MCF7 breast.
Common to all, as to assay: growth of human tumour cells (NCI), 48 h

Regarding `N#CN1CC[C@H](C(=O)Nc2cc3cc(C(N)=O)ccc3cn2)C1`, the GI50 in the assay with COLO 205 colon was 0.0855 µM; in the assay with LOX IMVI melanoma, 0.117 µM; with 786-0 renal, 0.222 µM; in the assay with ACHN renal, 0.333 µM; in the assay with MDA-MB-231 breast it was 0.0995 µM; in the assay on NCI-H522 lung it was 0.0695 µM. For the same molecule, the GI50 in the assay on BT-549 breast is 0.0357 µM; in the assay on SR leukemia it was 0.0347 µM; with HOP-92 NSCLC it was 0.0692 µM; in the assay on MCF7 breast, 0.0214 µM. Also, the TGI was 0.268 µM with COLO 205 colon; more than 54.9 µM in the assay with LOX IMVI melanoma; more than 24.5 µM in the assay with MDA-MB-231 breast; 0.247 µM with NCI-H522 lung; 0.23 µM in the assay with BT-549 breast; 0.542 µM in the assay on HOP-92 NSCLC. In the assay with MCF7 breast, the TGI was more than 100 µM.
For `Cc1cc(Cl)ccc1Nc1nc(C(F)(F)F)ccc1C(=O)N/N=C/c1ccccc1Cl`, the GI50 in the assay on COLO 205 colon was 0.727 µM; in the assay with LOX IMVI melanoma, 0.53 µM; with 786-0 renal, 0.672 µM; in the assay with ACHN renal it was 1.53 µM; with MDA-MB-231 breast, 1.13 µM; with NCI-H522 lung it was 1.48 µM. Moreover, the GI50 with BT-549 breast was 1.12 µM; in the assay on SR leukemia it was 0.188 µM; in the assay with HOP-92 NSCLC, 2.14 µM; in the assay with MCF7 breast, 0.896 µM. Moreover, the TGI in the assay on COLO 205 colon came to 2.1 µM; with LOX IMVI melanoma, 2.94 µM; in the assay with 786-0 renal, 2.67 µM; with ACHN renal it was 6.86 µM; with MDA-MB-231 breast it was 5.53 µM; with NCI-H522 lung, 6.77 µM. Moreover, the TGI with BT-549 breast is 5.75 µM; in the assay with SR leukemia it was 0.768 µM; in the assay with HOP-92 NSCLC, more than 24.6 µM; in the assay on MCF7 breast, 10.6 µM.
Turning to `C#COc1cccc(Nc2ncnc3cc(NC(=O)[C@H](C)Cl)ccc23)c1`, the GI50 in the assay on COLO 205 colon is 3.86 µM; with LOX IMVI melanoma, 2.54 µM; in the assay on 786-0 renal, 3.24 µM; in the assay with ACHN renal, 3.05 µM; in the assay on MDA-MB-231 breast, 3.75 µM; with NCI-H522 lung it was 1.67 µM. Besides, the GI50 in the assay on BT-549 breast was 3.22 µM; with SR leukemia it was 2.87 µM; with HOP-92 NSCLC it was more than 62.5 µM; in the assay with MCF7 breast it was 6.08 µM. For the same molecule, the TGI in the assay with COLO 205 colon was more than 62.5 µM; in the assay on LOX IMVI melanoma, more than 62.5 µM; in the assay on 786-0 renal, more than 62.5 µM; in the assay on ACHN renal, more than 62.5 µM; with MDA-MB-231 breast, more than 62.5 µM; with NCI-H522 lung, 8.29 µM. Further, the TGI in the assay with BT-549 breast, in the assay with SR leukemia, with HOP-92 NSCLC and in the assay with MCF7 breast was more than 62.5 µM each time.
Take `O=S(=O)(Nc1ccc(F)c(Cl)c1)c1ccc(-c2cnc(C3CC3)o2)cc1`: the GI50 in the assay with COLO 205 colon was 0.375 µM; in the assay on LOX IMVI melanoma, 0.401 µM; in the assay with 786-0 renal, 0.495 µM; in the assay on ACHN renal, 0.533 µM; with MDA-MB-231 breast, 0.727 µM; in the assay with NCI-H522 lung, 0.164 µM. The GI50 was 0.577 µM with BT-549 breast, 0.0838 µM in the assay with SR leukemia, 0.367 µM in the assay with HOP-92 NSCLC and 0.126 µM in the assay with MCF7 breast. Further, the TGI in the assay with COLO 205 colon stood at 4.69 µM; in the assay with LOX IMVI melanoma, 13.5 µM; in the assay with 786-0 renal, 13.1 µM; in the assay on ACHN renal, 12 µM; in the assay on MDA-MB-231 breast it was 11 µM; in the assay on NCI-H522 lung, 3.75 µM. Besides, the TGI with BT-549 breast is 9.01 µM; in the assay on SR leukemia, more than 42.3 µM; in the assay with HOP-92 NSCLC, 3.94 µM; in the assay on MCF7 breast it was 9.83 µM.
Take `COc1ccc(C2C=C(c3ccc(Cl)cc3)N=C3SC=C(C)N32)c(Br)c1` (configuration not stated): the GI50 in the assay with COLO 205 colon is 3.54 µM; in the assay on LOX IMVI melanoma it was 2.21 µM; in the assay on 786-0 renal, 3.57 µM; with ACHN renal, 3.64 µM; in the assay with MDA-MB-231 breast it was 4.72 µM; in the assay on NCI-H522 lung it was 2.96 µM. In addition, the GI50 in the assay on BT-549 breast was 3.22 µM; with SR leukemia it was 2.06 µM; in the assay on HOP-92 NSCLC it was 3.45 µM; with MCF7 breast, 2.32 µM. The TGI in the assay on COLO 205 colon was 10.3 µM; with LOX IMVI melanoma, 7.56 µM; with 786-0 renal, 25.4 µM; in the assay on ACHN renal it was 17.4 µM; in the assay with MDA-MB-231 breast it was 22.1 µM; in the assay on NCI-H522 lung, 9.29 µM. Besides, the TGI is 12.4 µM in the assay on BT-549 breast, 14.9 µM in the assay with SR leukemia, 22 µM in the assay with HOP-92 NSCLC and 12.5 µM in the assay on MCF7 breast.
As to `COc1ccc(/C=C\c2cc(OC)c(OC)c(OC)c2)cc1OCC(=O)Nc1ccc2nc(C)sc2c1`, the GI50 is 4.4 µM in the assay with COLO 205 colon; 2.64 µM in the assay with LOX IMVI melanoma; 7.55 µM in the assay with 786-0 renal; 3.12 µM with ACHN renal; 5.45 µM in the assay with MDA-MB-231 breast; 2.28 µM in the assay with NCI-H522 lung. The GI50 in the assay on BT-549 breast is 3.05 µM; in the assay on SR leukemia, 2.93 µM; in the assay with HOP-92 NSCLC, 2.38 µM; in the assay on MCF7 breast it was 0.748 µM. Besides, the TGI in the assay on COLO 205 colon was 16.2 µM; in the assay with LOX IMVI melanoma it was 9 µM; in the assay with 786-0 renal, more than 100 µM; in the assay with ACHN renal, 10.9 µM; in the assay with MDA-MB-231 breast, more than 100 µM; with NCI-H522 lung it was 7.06 µM. For the same molecule, the TGI in the assay on BT-549 breast is 8.53 µM; in the assay on SR leukemia, more than 100 µM; in the assay with HOP-92 NSCLC it was 7.62 µM; in the assay with MCF7 breast, 12.9 µM.
Take `COc1cc2c(=O)n(CCN(C)C)c3c4cc5c(cc4ccc3c2cc1OC)OCO5`: the GI50 was 0.169 µM in the assay on COLO 205 colon; 0.1 µM in the assay with LOX IMVI melanoma; 0.166 µM in the assay on 786-0 renal; 0.128 µM with ACHN renal; 0.824 µM in the assay with MDA-MB-231 breast; 0.114 µM in the assay with NCI-H522 lung. For the same molecule, the GI50 in the assay with BT-549 breast is 0.413 µM; with SR leukemia it was 0.0557 µM; in the assay on HOP-92 NSCLC, 0.505 µM; in the assay with MCF7 breast, 0.102 µM. For the same molecule, the TGI in the assay with COLO 205 colon worked out at 0.922 µM; with LOX IMVI melanoma, 0.32 µM; in the assay on 786-0 renal, 0.672 µM; with ACHN renal it was 0.363 µM; with MDA-MB-231 breast, 3.53 µM; in the assay with NCI-H522 lung, 1.21 µM. For the same molecule, the TGI was determined as 5.27 µM with BT-549 breast, 3.78 µM in the assay with SR leukemia, 2.6 µM in the assay on HOP-92 NSCLC and 6.16 µM in the assay with MCF7 breast.
